Consider 3 molecules from patent publication US5990160A, “Use of tropolone derivatives as inhibitors of the enzyme inositol monophosphatase” (Gruppo Lepetit, SpA, priority 1995, dated 1999).

Data set [1] addresses T1, inositol monophosphatase (IMPase) (Bos taurus, UniProt P20456).
T1 sequence (P20456 1-277): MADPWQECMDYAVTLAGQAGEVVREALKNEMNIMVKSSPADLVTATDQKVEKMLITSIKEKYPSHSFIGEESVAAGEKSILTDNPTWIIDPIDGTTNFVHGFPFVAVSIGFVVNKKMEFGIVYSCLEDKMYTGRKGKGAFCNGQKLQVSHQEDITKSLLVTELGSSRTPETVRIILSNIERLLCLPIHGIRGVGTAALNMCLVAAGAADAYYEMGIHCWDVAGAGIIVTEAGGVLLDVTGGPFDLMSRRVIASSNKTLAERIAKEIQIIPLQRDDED
Nature of the data set: Inhibition of inositol monophosphatase (IMPase) enzyme activity, liberated phosphate by molybdate coloration. The conditions noted are these: 4 mM 2-glycerolphosphate, 5 μg/ml IMPase, 50 mM Tris-HCl pH 7.5, 2 mM magnesium chloride, 0.1 mM EGTA, 30 minutes; read-out: IC50 (molar amount of inhibitor required to inhibit the enzyme activity by 50%). The data set is classed as biochemical, animal. An excerpt: For determining the activity of the compounds of formula I, IMPase with a purity higher than 90% as judged by SDS-PAGE (sodium dodecyl sulphate polyacrylamide gel electrophoresis) is purified as described in P. D. Pelton and A. J. Ganzhorn, Journal Biolog. Chem., 267, 1992, pp. 5916-5920. The enzyme can be purified from animal brain or from recombinant E. coli strains expressing animal IMPase. Although crude enzyme preparations can also be used, it is preferable to use purified enzyme. The purified enzyme routinely has a specific activity of 25 μmol of Pi/min/mg of protein as determined in a standard assay (P. V. Attwood et al., Biochem. Jour., 1988, 253, pp. 387-394) with 4 mM 2-glycerolphosphate as substrate.
The enzyme activity may be determined according to A. J. Ganzhorn and M. C. Chanal, Biochem., 1990, 29; the reaction mixture contains 50 mM Tris-HCl, pH 7.5, 2 mM magnesium chloride and 0.1 mM EGTA. Then, 5 μg/ml of enzyme IMPase and 4 mM of 2-glycerolphosphate substrate are added to the reaction mixture; alternatively, it is also possible to add the substrate directly into the reaction mixture, before adding the enzyme.
The reaction is considered terminated after 30 minutes from the addition of the substrate or the enzyme (depending on which one is added later); the liberated phosphate is determined by molybdate coloration (P. V. Attwood et al., Biochem. Jour., 1988, 253, pp. 387-394) at 350 nm with a Shimadzu spectrophotometer UV 2100.
The enzyme reaction is performed either in the absence or in the presence of various concentrations of the compounds of formula I, to determine the molar amount of inhibitor required to inhibit the enzyme activity by 50% (IC50).

The next data set relates to bipolar disorder / mania. As to conditions: cited from earlier work.
For another data set, the system named is inositol monophosphatase. As to conditions: cited from earlier work.
The conditions of data set [2]: cited from earlier work.

Entries after “also recorded” stand apart in the source; their conditions may differ.

In the case of `O=C(O)c1cc(O)c(O)c(=O)c(O)c1` [puberulic acid, 3,4,6-trihydroxy-5-oxo-1,3,6-cycloheptatriene-1-carboxylic acid], in data set [1], the IC50 (commonly the concentration that inhibits the measured activity by half) is ~40 µM.

Consider `O=C1OC(=O)c2c1cc(O)c(O)c(O)c2=O` [puberulonic acid, 3,4,6-trihydroxy-5-oxo-1,3,6-cycloheptatriene-1,7-dicarboxylic acid anhydride], for which the IC50 in data set [1] is ~4 µM.

As to lithium, the “time it takes to exert anti-manic effect” value in the data set on bipolar disorder / mania (acute bipolar disorder) was 7 to 10 days. The “anti-manic and anti-depressive therapeutic effect” value in the data set on bipolar disorder / mania (preferably employed as lithium carbonate) was “alleviating manic symptoms, normalizing the mood of manic patients”. In the data set with inositol monophosphatase, the “inhibition of inositol monophosphatase activity” value is recorded as “inhibits the activity of said enzyme”. Further, the “structural lesions in kidney” value in data set [2] (after chronic lithium treatment, especially in patients who have experienced lithium toxicity) is “interstitial fibrosis, tubular atrophy and glomerular sclerosis”. Moreover, the “adverse effects common to lithium therapy” value in data set [2] (lithium therapy) was “tremor, weight gain, diarrhea and skin rash; also recorded: transient leukocytosis; also recorded: can cause patients with a borderline thyroid reserve to become clinically hypothyroid; also recorded: can decompensate cardiac status due to shifts in fluids and electrolytes”. In addition, the “occurrence of polyuria-polydipsia syndrome” value in data set [2] (lithium treatment) is on record as “up to 60 % of treated patients”. The half-inhibitory concentration (IC50) in data set [1] was ~1250 µM.
